According to PubChem BioAssay AID1963958 (Molecular Pharmacology Branch, DTP, NCI, 2024):

Tested on: MDA-MB-231 multicell spheroids, viability
Assay: Anticancer human tumor MDA-MB-231 cell line growth inhibition [PI3K];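 also: spheroids exposed to agents for seven days before reading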;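 as to viability, T/C: percent of vehicle control luminescence with DMSO treated spheroids as 100%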
Settings: for IC50: curve of first compound; for viability, T/C: stronger effect = lower value
Summary of the method: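 Spheroid viability read-out. Co-cultures contained the tumor line plus HUVEC and human MSCs. Each agent was paired with a PI3K inhibitor (inavolisib, alpelisib, duvelisib, copanlisib) across half-log dilutions starting at clinical Cmax, or at 10 microM when Cmax was unknown.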

- IC50 (second compound 0.0316 µM): 208 nM
- IC50 (second compound 0.1 µM): 170 nM
- IC50 (second compound 0.316 µM): 41.7 nM
- IC50 (second compound 1 µM): 24.5 nM
- IC50 (second compound 3.16 µM): < 9.49 nM
- IC50 (second compound 10 µM): < 9.49 nM
SMILES: Cn1cnc2c(F)c(Nc3ccc(Br)cc3Cl)c(C(=O)NOCCO)cc21 + CC(Nc1ncnc2nc[nH]c12)c1cc2cccc(Cl)c2c(=O)n1-c1ccccc1
- viability, T/C (second compound 0.0316 µM, first compound 0.00949 µM): 75%
- viability, T/C (second compound 0.0316 µM, first compound 0.03 µM): 63.7%
- viability, T/C (second compound 0.0316 µM, first compound 0.0949 µM): 50.3%
- viability, T/C (second compound 0.0316 µM, first compound 0.3 µM): 50.5%
- viability, T/C (second compound 0.0316 µM, first compound 0.949 µM): 44.5%
- viability, T/C (second compound 0.0316 µM, first compound 3 µM): 31.8%
- viability, T/C (second compound 0.1 µM, first compound 0.00949 µM): 72.2%
- viability, T/C (second compound 0.1 µM, first compound 0.03 µM): 63.9%
- viability, T/C (second compound 0.1 µM, first compound 0.0949 µM): 50.2%
- viability, T/C (second compound 0.1 µM, first compound 0.3 µM): 47.5%
- viability, T/C (second compound 0.1 µM, first compound 0.949 µM): 41.8%
- viability, T/C (second compound 0.1 µM, first compound 3 µM): 30.6%
- viability, T/C (second compound 0.316 µM, first compound 0.00949 µM): 65%
- viability, T/C (second compound 0.316 µM, first compound 0.03 µM): 53%
- viability, T/C (second compound 0.316 µM, first compound 0.0949 µM): 42.3%
- viability, T/C (second compound 0.316 µM, first compound 0.3 µM): 41%
- viability, T/C (second compound 0.316 µM, first compound 0.949 µM): 39.1%
- viability, T/C (second compound 0.316 µM, first compound 3 µM): 34.6%
- viability, T/C (second compound 1 µM, first compound 0.00949 µM): 56.1%
- viability, T/C (second compound 1 µM, first compound 0.03 µM): 50.5%
- viability, T/C (second compound 1 µM, first compound 0.0949 µM): 37.7%
- viability, T/C (second compound 1 µM, first compound 0.3 µM): 39%
- viability, T/C (second compound 1 µM, first compound 0.949 µM): 33.2%
- viability, T/C (second compound 1 µM, first compound 3 µM): 26.8%
- viability, T/C (second compound 3.16 µM, first compound 0.00949 µM): 44.7%
- viability, T/C (second compound 3.16 µM, first compound 0.03 µM): 36.4%
- viability, T/C (second compound 3.16 µM, first compound 0.0949 µM): 28.8%
- viability, T/C (second compound 3.16 µM, first compound 0.3 µM): 27.1%
- viability, T/C (second compound 3.16 µM, first compound 0.949 µM): 26.2%
- viability, T/C (second compound 3.16 µM, first compound 3 µM): 19.8%
- viability, T/C (second compound 10 µM, first compound 0.00949 µM): 32.8%
- viability, T/C (second compound 10 µM, first compound 0.03 µM): 29.2%
- viability, T/C (second compound 10 µM, first compound 0.0949 µM): 21.7%
- viability, T/C (second compound 10 µM, first compound 0.3 µM): 22.6%
- viability, T/C (second compound 10 µM, first compound 0.949 µM): 24%
- viability, T/C (second compound 10 µM, first compound 3 µM): 12.9%
